Test results reported in the supplement of paper PMC6045584.
± gives the standard deviation of the averaged measurements.

Tests used:
17-AAG = compound: C=CCNC1=C2C[C@@H](C)C[C@H](OC)[C@H](O)[C@@H](C)/C=C(\C)[C@H](OC(N)=O)[C@@H](OC)/C=C\C=C(/C)C(=O)NC(=CC1=O)C2=O [17-AAG]; test: surviving fraction relative to DMSO-only wells; higher = less growth inhibition; conditions: exposure time: 5 days
How it was run: (§1)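 Log-phase tumour cells were seeded at 250–500 per well in 384-well plates and, from 24 hours after seeding, exposed continuously for five days to inhibitors at 0.5, 1, 5, 10, 50, 100, 500 and 1000 nM. Surviving fraction is CellTiter-Glo luminescence normalised to the median of DMSO-only wells. Luminescence was measured after 10 minutes at room temperature, and only lines screened three times with replicate Pearson r >0.7 and median Z' >0.3 were kept.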

FLAVOPIRIDOL = compound: CN1CC[C@H](c2c(O)cc(O)c3c(=O)cc(-c4ccccc4Cl)oc23)[C@H](O)C1 [FLAVOPIRIDOL]; test: as above; conditions: exposure time: 5 days
How it was run: as §1

Row | Test System | surviving fraction (17-AAG; 0.5 nM) | surviving fraction (17-AAG; 1 nM) | surviving fraction (17-AAG; 5 nM) | surviving fraction (17-AAG; 10 nM) | surviving fraction (17-AAG; 50 nM) | surviving fraction (17-AAG; 100 nM) | surviving fraction (17-AAG; 500 nM) | surviving fraction (17-AAG; 1000 nM) | surviving fraction (FLAVOPIRIDOL; 0.5 nM) | surviving fraction (FLAVOPIRIDOL; 1 nM) | surviving fraction (FLAVOPIRIDOL; 5 nM) | surviving fraction (FLAVOPIRIDOL; 10 nM) | surviving fraction (FLAVOPIRIDOL; 50 nM) | surviving fraction (FLAVOPIRIDOL; 100 nM) | surviving fraction (FLAVOPIRIDOL; 500 nM) | surviving fraction (FLAVOPIRIDOL; 1000 nM)
1 | 22RV1 PROSTATE | 0.906 ± 0.038 | 0.989 ± 0.043 | 0.975 ± 0.027 | 0.91 ± 0.069 | 0.687 ± 0.07 | 0.336 ± 0.047 | 0.134 ± 0.0046 | 0.0907 ± 0.011 | 1.04 ± 0.12 | 0.928 ± 0.16 | 0.953 ± 0.11 | 0.893 ± 0.2 | 0.897 ± 0.11 | 0.405 ± 0.14 | 0.124 ± 0.11 | 0.118 ± 0.086
2 | 93VU HEADNECK | 0.814 ± 0.066 | 0.78 ± 0.0099 | 0.822 ± 0.088 | 0.92 ± 0.087 | 1.13 ± 0.099 | 0.119 ± 0.011 | 0.092 ± 0.0062 | 0.0827 ± 0.005 | 1.04 ± 0.088 | 1.03 ± 0.012 | 1.19 ± 0.066 | 1.12 ± 0.11 | 0.82 ± 0.011 | 0.0713 ± 0.0035 | 0.0237 ± 0.0015 | 0.0217 ± 0.0015
3 | 143B BONE | 0.985 ± 0.047 | 0.992 ± 0.063 | 1.02 ± 0.029 | 0.965 ± 0.021 | 0.651 ± 0.011 | 0.271 ± 0.0071 | 0.0855 ± 0.00071 | 0.0855 ± 0.00071 | 1.12 ± 0.14 | 1.11 ± 0.086 | 1.11 ± 0.048 | 1.11 ± 0.095 | 0.824 ± 0.024 | 0.279 ± 0.0035 | 0.045 ± 0.0028 | 0.042 ± 0.0028
4 | A549 LUNG | 0.923 ± 0.039 | 0.909 ± 0.038 | 0.91 ± 0.007 | 0.813 ± 0.076 | 0.14 ± 0.014 | 0.06 ± 0.0044 | 0.0547 ± 0.0032 | 0.0493 ± 0.00058 | 1.04 ± 0.011 | 1.05 ± 0.015 | 1.06 ± 0.013 | 1.05 ± 0.018 | 1.18 ± 0.028 | 0.379 ± 0.11 | 0.0697 ± 0.0058 | 0.0687 ± 0.0038
5 | ASKA SYNOVIAL | 0.785 ± 0.062 | 0.728 ± 0.11 | 0.626 ± 0.045 | 0.293 ± 0.025 | 0.206 ± 0.014 | 0.182 ± 0.02 | 0.185 ± 0.011 | 0.226 ± 0.0099 | 1.02 ± 0.087 | 1.02 ± 0.066 | 1.11 ± 0.054 | 1.11 ± 0.036 | 0.507 ± 0.065 | 0.202 ± 0.01 | 0.186 ± 0.012 | 0.261 ± 0.0078
6 | BT20 BREAST | 0.804 ± 0.1 | 0.793 ± 0.054 | 0.504 ± 0.08 | 0.308 ± 0.034 | 0.303 ± 0.061 | 0.282 ± 0.091 | 0.261 ± 0.068 | 0.278 ± 0.047 | 1.21 ± 0.073 | 1.16 ± 0.022 | 1.17 ± 0.1 | 1.013 ± 0.0035 | 0.742 ± 0.12 | 0.359 ± 0.012 | 0.038 ± 0.0062 | 0.0367 ± 0.004
7 | BT549 BREAST | 0.874 ± 0.12 | 0.811 ± 0.034 | 0.604 ± 0.092 | 0.259 ± 0.064 | 0.152 ± 0.028 | 0.0433 ± 0.0042 | 0.0447 ± 0.0045 | 0.0467 ± 0.0025 | 1.17 ± 0.052 | 1.13 ± 0.094 | 1.11 ± 0.07 | 0.994 ± 0.021 | 0.454 ± 0.035 | 0.074 ± 0.012 | 0.0343 ± 0.005 | 0.035 ± 0.007
8 | C33A CERVIX | 1.22 ± 0.12 | 1.04 ± 0.14 | 1.4 ± 0.13 | 1.2 ± 0.09 | 1.31 ± 0.068 | 1.16 ± 0.1 | 1.061 ± 0.0074 | 0.124 ± 0.016 | 0.991 ± 0.084 | 1.1 ± 0.041 | 1.12 ± 0.067 | 1.31 ± 0.13 | 0.923 ± 0.13 | 0.366 ± 0.011 | 0.028 ± 0.0027 | 0.0277 ± 0.0072
9 | CADOES1 SOFT TISSUE | 0.884 ± 0.093 | 1.01 ± 0.07 | 1 ± 0.076 | 0.903 ± 0.023 | 0.876 ± 0.11 | 0.842 ± 0.1 | 0.454 ± 0.1 | 0.129 ± 0.022 | 0.844 ± 0.099 | 0.924 ± 0.062 | 0.843 ± 0.13 | 0.888 ± 0.082 | 0.332 ± 0.062 | 0.146 ± 0.054 | 0.0357 ± 0.0051 | 0.038
10 | CAL51 BREAST | 0.966 ± 0.047 | 0.886 ± 0.052 | 0.989 ± 0.033 | 0.93 ± 0.033 | 0.361 ± 0.0083 | 0.0827 ± 0.0082 | 0.0253 ± 0.00076 | 0.024 ± 0.0005 | 1.02 ± 0.065 | 0.983 ± 0.092 | 1.02 ± 0.056 | 0.877 ± 0.092 | 0.528 ± 0.0091 | 0.0968 ± 0.014 | 0.0297 ± 0.00058 | 0.03133 ± 0.00029
11 | CAL72 BONE | 1.05 ± 0.064 | 1 ± 0.016 | 0.982 ± 0.016 | 1 ± 0.017 | 1.15 ± 0.032 | 0.953 ± 0.04 | 0.249 ± 0.015 | 0.234 ± 0.011 | 1.09 ± 0.1 | 1.06 ± 0.021 | 1.05 ± 0.049 | 0.982 ± 0.04 | 0.649 ± 0.053 | 0.142 ± 0.053 | 0.0577 ± 0.0032 | 0.0577 ± 0.0076
12 | CAL120 BREAST | 0.87 ± 0.04 | 0.861 ± 0.032 | 0.904 ± 0.016 | 0.83 ± 0.0039 | 0.226 ± 0.024 | 0.119 ± 0.015 | 0.0875 ± 0.0079 | 0.076 ± 0.0061 | 0.971 ± 0.055 | 0.972 ± 0.029 | 0.955 ± 0.058 | 0.949 ± 0.03 | 0.73 ± 0.034 | 0.314 ± 0.051 | 0.0425 ± 0.003 | 0.0403 ± 0.0016
13 | CASKI CERVIX | 0.745 ± 0.065 | 0.787 ± 0.04 | 0.77 ± 0.057 | 0.599 ± 0.072 | 0.1 ± 0.007 | 0.054 ± 0.0053 | 0.0283 ± 0.0025 | 0.0287 ± 0.0015 | 0.918 ± 0.045 | 0.969 ± 0.031 | 0.919 ± 0.055 | 0.888 ± 0.056 | 0.284 ± 0.028 | 0.0293 ± 0.0015 | 0.022 ± 0.001 | 0.0253 ± 0.00058
14 | CHLA90 AUTONOMIC GANGLIA | 0.927 ± 0.033 | 0.941 ± 0.023 | 0.912 ± 0.055 | 0.889 ± 0.037 | 0.476 ± 0.012 | 0.32 ± 0.018 | 0.175 ± 0.0084 | 0.143 ± 0.0023 | 0.987 ± 0.1 | 1 ± 0.12 | 0.906 ± 0.083 | 0.878 ± 0.021 | 0.826 ± 0.11 | 0.573 ± 0.072 | 0.0277 ± 0.0015 | 0.0247 ± 0.00058
15 | CME SYNOVIAL | 0.9 ± 0.14 | 0.767 ± 0.024 | 1.01 ± 0.12 | 0.896 ± 0.13 | 0.259 ± 0.033 | 0.222 ± 0.015 | 0.239 ± 0.029 | 0.306 ± 0.032 | 1.13 ± 0.18 | 1.22 ± 0.07 | 1.23 ± 0.081 | 1.2 ± 0.07 | 0.864 ± 0.053 | 0.25 ± 0.0067 | 0.168 ± 0.004 | 0.228 ± 0.012
16 | COLO320DM LARGE INTESTINE | 1.04 ± 0.084 | 0.959 ± 0.094 | 1.05 ± 0.038 | 1.17 ± 0.075 | 1.26 ± 0.41 | 0.955 ± 0.16 | 0.505 ± 0.032 | 0.286 ± 0.048 | 1.1 ± 0.11 | 1.09 ± 0.086 | 1.08 ± 0.14 | 1.01 ± 0.12 | 0.503 ± 0.0073 | 0.0807 ± 0.0055 | 0.0493 ± 0.00076 | 0.0478 ± 0.0036
17 | DU4475 BREAST | 0.798 ± 0.24 | 0.794 ± 0.15 | 0.764 ± 0.11 | 0.392 ± 0.11 | 0.0277 ± 0.0047 | 0.0283 ± 0.0051 | 0.027 ± 0.0066 | 0.0267 ± 0.0029 | 1.05 ± 0.1 | 1.08 ± 0.12 | 0.83 ± 0.07 | 0.914 ± 0.16 | 0.162 ± 0.021 | 0.0273 ± 0.0021 | 0.025 ± 0.0027 | 0.0267 ± 0.0021
18 | H23 LUNG | 0.949 ± 0.026 | 0.939 ± 0.01 | 0.9313 ± 0.0035 | 0.727 ± 0.03 | 0.234 ± 0.0085 | 0.11 ± 0.014 | 0.0333 ± 0.0011 | 0.0323 ± 0.0025 | 1.03 ± 0.034 | 1.05 ± 0.027 | 1.15 ± 0.073 | 1.18 ± 0.079 | 1.54 ± 0.11 | 0.5197 ± 0.005 | 0.0303 ± 0.0015 | 0.026 ± 0.001
19 | HCC78 LUNG | 0.814 ± 0.2 | 0.832 ± 0.067 | 0.961 ± 0.12 | 0.511 ± 0.097 | 0.0943 ± 0.0025 | 0.086 ± 0.011 | 0.053 ± 0.013 | 0.0667 ± 0.0021 | 1.08 ± 0.18 | 0.94 ± 0.032 | 0.898 ± 0.11 | 0.809 ± 0.25 | 0.151 ± 0.032 | 0.0467 ± 0.0059 | 0.0207 ± 0.00058 | 0.02
20 | HCC202 BREAST | 0.965 ± 0.13 | 0.988 ± 0.31 | 0.715 ± 0.081 | 0.537 ± 0.17 | 0.264 ± 0.053 | 0.177 ± 0.021 | 0.171 ± 0.038 | 0.161 ± 0.027 | 0.988 ± 0.55 | 1.17 ± 0.34 | 1.13 ± 0.22 | 1.06 ± 0.31 | 0.847 ± 0.13 | 0.304 ± 0.012 | 0.0405 ± 0.00071 | 0.0405 ± 0.00071
